One block for each compound: values may come before it. Ends that are not written are not given here.
Columns and labels:
[1] = target: T1, PKN purified from rat testis (Rattus norvegicus, UniProt Q63433); experiment: Phosphorylation of α-actinin and actin-cytoskeletal proteins by PKN; assay type: biochemical; settings: presence of 40 μM arachidonic acid
T1 construct: The purified PKN (1 ng) from rat testis cytosol; from tissue; host or cells: rat testis (cytosol / soluble fraction)
Method: α-Actinin used in the experiment was purified from bovine aorta by the method of Feramisco et al. (Feramisco, J. R. & Burridge, K. J. Biol. Chem, 255, 1194-1199 (1980)). The phosphorylation by PKN was carried out at 30° C. in an assay mixture containing 20 mM Tris/HCl at pH 7.5, 4 mM MgCl2, 100 μM ATP, 185 kBq of [γ-^32p] ATP, substrates for phosphorylation (phosphate acceptors), 20 ng/ml of purified PKN from rat testis (Abe, M., et al., J. Biochem. Tokyo 107, 507-509 (1990)) in the presence or absence of 40 μM arachidonic acid as indicated in each experiment. Partial purified protein was boiled for 3 min to destroy endogenous kinase activity before use as the substrate for phosphorylation. After incubation for 5 min, the reaction was terminated by the addition of an equal volume of Laemmli's sample buffer (Laemmli, U. K. Nature […], 680-685 (1970)), and separated on SDS-PAGE. The gels were dried under vacuum and the phosphorylation was visualized and quantitated by an imaging analyzer (FUJI BAS1000). When the δPKC peptide (Mukai, H., et al. Biochem, Biophys. Res. Commun. 204, 348-356 (1994)) was used as the substrate for phosphorylation, reactions were terminated by spotting a mixture onto a Whatman P81 paper and submerging it in 75 mM phosphate, and followed by three times of 10 min washes. Incorporation of ^32p into the peptide was assessed by scintillation counting. […]

[2] = target: T2, purified PKN from rat testis (Rattus norvegicus, UniProt Q63433); experiment: Phosphorylation of native NF by PKN; assay type: biochemical; settings: 40 μM arachidonic acid
T2 construct: The purified PKN (1 ng) from rat testis cytosol; from tissue; host or cells: rat testis (cytosol / soluble fraction)
Method: Native NFs were prepared from bovine spinal cords according to a method described in Hisanaga, S. & Hirokawa, N., J. Mol. Biol. 202, 297-305 (1988). Kinase assay was carried out according to the following method.
Soluble cytosolic extract of spinal cord or purified NF proteins were boiled for 5 min to destroy endogenous protein kinase activity prior to their use as phosphate acceptors. The phosphorylation of NF preparations was carried out at 30° C. in an assay mixture containing 20 mM Tris/HCl at pH 7.5, 8 mM MgCl2, 100 μM ATP, 185 kBq of [γ-^32P]ATP, each subunit of NF, 20 ng/ml of purified PKN from rat testis, and with/without 40 μM arachidonic acid as indicated in each experiment. Reactions were terminated after various times by the addition of an equal volume of Laemli's sample buffer, and separation was performed on 7% SDS-PAGE. The gels were dried under vacuum and exposure to BAS1000 bio-imaging analyzer. Dephosphorylation of NF proteins was conducted with calf intestine alkaline phosphatase according to a method described in Carden, M. J. et al., J. Biol. Chem. 260, 9805-9817 (1985) and terminated after boiling for 5 min.

[3] = test system: Rat-1 cells; experiment: Subcellular distribution of PKN after sodium arsenite (immunofluorescence); assay type: cell-based; settings: 50 μM, 37° C. for 2 hr
Method: (§1) Cells grown on coverslips were washed twice with phosphate-buffered saline (PBS), fixed for 1 hr at 4° C. in 4% paraformaldehyde, rinsed with PBS, and then blocked for 1 hr in PBS-T (PBS containing 0.05% Triton X-100) containing 5% normal goat serum. After washing with PBS, cells were incubated overnight at 4° C. with each antiserum which has been diluted with PBS to an antiserum concentration of about 10 μg/ml. Coverslips were then rinsed with PBS-T, and incubated with fluorescein isothiocyanate isomer I (FITC)-conjugated goat anti-rabbit IgG (Medical and biological laboratories, Co. Ltd.) for 60 min. Coverslips were rinsed with PBS-T followed by PBS, mounted with glycerol containing 0.1% 1, 4-diazabicyclo (2, 2, 2) octane (DABCO), and viewed on a Zeiss laser scanning microscope.
An experiment was made in order to examine whether the subcellular distribution of PKN is influenced also by chemical shock. It is known that toxic compounds and toxic heavy metals also induce heat shock proteins and the stress responses in experimental systems (Maytin, E. V. & Young, D. A., J. Biol. Chem. 258, 12718-12722 (1983)). It is also known that cellular response similar to the stress induced by the heat shock is created also by treatment with sodium arsenite (Welch, W. J. & Suhan, J. P., J. Cell Biol. 103, 2035-2052 (1986)). […]

[4] = target: T3, PKN (Rattus norvegicus, UniProt Q63433); experiment: Inhibition of protein kinase activity of PKN with synthetic peptides (δPKC peptide substrate); assay type: biochemical; settings: δPKC peptide at Km concentration (10 μM)
T3 construct: The purified PKN (1 ng) from rat testis cytosol; from tissue; host or cells: rat testis (cytosol / soluble fraction)
Method: Kinase assay was carried out by the following method. The purified PKN (1 ng) from rat testis cytosol (Kitagawa, M. et al., Biochem. J. 310, 657-664. (1995)) was incubated for 5 min at 30° C. in a reaction mixture (final volume 25 μl) containing 50 mM Tris/HCl (pH 7.5), 8 mM Mgcl2, 20 μM ATP, 18.5 kBq of [γ-^32p] ATP, 40 μM arachidonic acid, phosphate acceptors and inhibitors as indicated in each experiment. Reactions were started by the addition of the enzyme source and terminated by spotting them onto Whatman P81 papers immersed in 75 mM phosphate. Incorporation of ^32P into phosphate acceptors was assessed by liquid scintillation counting. The protein kinase assay was carried out in the same manner as in Example 13, except that PKN was measured by using 6PKC peptide as a substrate and PKN (39-53) peptide (FIG. 22; black circle) or PKN (54-73) (FIG. 22: white circle) as an inhibitor. The concentration of δPKC peptide was Km concentration (10 μM). The protein kinase reaction was carried out in the presence of PKN (39-53) peptide or PKN (54-73) peptide with various concentrations.

[5] = target: T4, GST-RhoGAP-stimulated GTPase activity of GST-RhoA (Homo sapiens, UniProt P61586); experiment: GAP-stimulated GTPase activity of RhoA; assay type: biochemical; settings: 50 nM GST-RhoGAP, 2 min 25° C., concentration-dependent
T4 construct: made in house
Method: The GAP-stimulated GTPase activity of RhoA was assayed by measuring the decreased radioactivity of [γ-^32p] GTP.GST-RhoA for 2 min at 25° C. in the presence of 50 nM of p122 Rho GAP fused to GST (GST-RhoGAP) and MBP-PKN with various concentrations in 100 μl of reaction mixture (20 mM Tris/HCl at pH 7.5, 10 mM EDTA, 1 mM DTT, 10 mM MgCl2, 1 mM GTP, 0.075% CHAPS, 0.25 mM L-α-dimyristoylphosphatidylcholine, 100 nM [γ-^32p] GTP bound form of GST-RhoA) (Homma, Y. & Emori, Y., EMBO J. 14, 286-291 (1995).

[6] = test system: PKN autophosphorylation; experiment: Kinase activity (autophosphorylation) of immunoprecipitated PKN-PK^−; assay type: biochemical, human; settings: immunoprecipitate from PK^−/neo#5 cells
Method: To examine whether PKN-PK^− has kinase activity, the kinase activity of PKN-PK^−, which has been immunoprecipitated by cells, was assayed. Specifically, the assay was carried out according to the following procedure.
The experiment on immunoprecipitation was carried out at 0 to 4° C. The wild type NIH 3T3 cells and PK^−/neo#5 cells were lysed in 0.5 ml of buffer B (20 mM Tris/HCl at pH 7.5, 1% Nonidet P-40, 137 mM NaCl, 10% glycerol, 1 mM PMSF, 20 μg/ml aprotinin, 10 μg/ml leupeptin, 2.5 mM sodium fluoride, 0.25 mM sodium vanadate) for 1 hr. Insoluble materials were removed by centrifugation at 15,000×g for 10 min, and the supernatants were incubated with 1 μl of 10-fold diluted antiserum αN2 (Example 19) for 2 hr. After addition of 40 μl of 50% protein A Sepharose, the mixtures were further incubated for 1 hr. […] Each immunoprecipitate was incubated for 5 min at 30° C. with a 25-μl mixture (20 mM Tris/HCl at pH 7.5, 4 mM MgCl2, 40 μM ATP, 185 kBq of [γ-^32P] ATP without exogenous substrate. After addition of 5 μl of 6×Laemmli sample buffer (Laemmli, U. K. Nature 227, 680-685 (1970)) and boiling, a 20-μl aliquot of the mixture was subjected to 7% SDS-PAGE. The phosphorylation was visualized and quantitated by an imaging analyzer (Fuji BAS1000).

[7] = test system: PK^−/neo#5 cells (NIH 3T3); experiment: Heat shock induced nuclear translocation of PKN in PK^−/neo#5 cells; assay type: cell-based
Method: as §1
At the outset, NIH 3T3 cells which stably overexpresses PKN-PK^− were constructed by the following procedure. A vector phPKNH4-PK^− was constructed by conversion of the lysine at the potential ATP-binding site to an arginine by in vitro site-directed mutagenesis (Mukai, H. & Ono, Y., Biochem. Biophys. Res. Commun. 199, 897-904 (1994)). […]

[8] = target: T5, purified PKN (Rattus norvegicus, UniProt Q63433); experiment: Kinetic assays of PKN inhibition by PKN (39-53) peptide; assay type: biochemical
T5 construct: The purified PKN (1 ng) from rat testis cytosol; from tissue; host or cells: rat testis (cytosol / soluble fraction)
Method: In order to confirm the function of PKN (39-53) as a pseudosubstrate for PKN, kinetic assays were performed with purified PKN, a fixed ATP concentration of 100 μM, and various concentrations of δPKC peptide (10-80 μM). The protein kinase reaction of PKN was performed in the same manner as in Examples 13 and 14. The results, performed in the presence of 40-80 μM PKN (39-53) peptide, are shown in double-reciprocal plots (FIG. 23 (A)). The inhibition was competitive-noncompetitive and gave a linear secondary plot of Km/Vmax (a concentration required to give a half-maximal velocity/maximal velocity) versus inhibitor peptide concentrations (FIG. 23 (B)).

[9] = target: T6, catalytic subunit of bovine heart PKA (Bos taurus, UniProt P00517); experiment: Protein kinase assay with PKA (Kemptide substrate), specificity of inhibitor peptide; assay type: biochemical; settings: Kemptide at Km concentration (16 μM), no arachidonic acid; read-out: IC50 against PKA
T6 construct: The catalytic subunit of bovine heart PKA used in the experiment was purified; from tissue; host or cells: bovine heart
Method: In order to judge the specificity of the activity of the inhibitor peptide, a protein kinase assay was carried out using PKA as an enzyme specimen. The catalytic subunit of bovine heart PKA used in the experiment was purified according to a method described in Bechtel, P. J. et al., J. Biol. Chem. 252, 2691-2697 (1977). The protein kinase activity of PKA was measured by using Kemptide (Kemp, B. E. et al., J. Biol. Chem. 252, 4888-4894 (1977) as a substrate under the same conditions as those used in Example 13, except that arachidonic acid was not used. The concentration of Kemptide was the Km concentration (16 μM), and measurement was made using PKN (39-53) peptide as an inhibitor (FIG. 22; white square). The kinase activity was determined in the same manner as in Example 13.

T5 sequence (Q63433 whole entry): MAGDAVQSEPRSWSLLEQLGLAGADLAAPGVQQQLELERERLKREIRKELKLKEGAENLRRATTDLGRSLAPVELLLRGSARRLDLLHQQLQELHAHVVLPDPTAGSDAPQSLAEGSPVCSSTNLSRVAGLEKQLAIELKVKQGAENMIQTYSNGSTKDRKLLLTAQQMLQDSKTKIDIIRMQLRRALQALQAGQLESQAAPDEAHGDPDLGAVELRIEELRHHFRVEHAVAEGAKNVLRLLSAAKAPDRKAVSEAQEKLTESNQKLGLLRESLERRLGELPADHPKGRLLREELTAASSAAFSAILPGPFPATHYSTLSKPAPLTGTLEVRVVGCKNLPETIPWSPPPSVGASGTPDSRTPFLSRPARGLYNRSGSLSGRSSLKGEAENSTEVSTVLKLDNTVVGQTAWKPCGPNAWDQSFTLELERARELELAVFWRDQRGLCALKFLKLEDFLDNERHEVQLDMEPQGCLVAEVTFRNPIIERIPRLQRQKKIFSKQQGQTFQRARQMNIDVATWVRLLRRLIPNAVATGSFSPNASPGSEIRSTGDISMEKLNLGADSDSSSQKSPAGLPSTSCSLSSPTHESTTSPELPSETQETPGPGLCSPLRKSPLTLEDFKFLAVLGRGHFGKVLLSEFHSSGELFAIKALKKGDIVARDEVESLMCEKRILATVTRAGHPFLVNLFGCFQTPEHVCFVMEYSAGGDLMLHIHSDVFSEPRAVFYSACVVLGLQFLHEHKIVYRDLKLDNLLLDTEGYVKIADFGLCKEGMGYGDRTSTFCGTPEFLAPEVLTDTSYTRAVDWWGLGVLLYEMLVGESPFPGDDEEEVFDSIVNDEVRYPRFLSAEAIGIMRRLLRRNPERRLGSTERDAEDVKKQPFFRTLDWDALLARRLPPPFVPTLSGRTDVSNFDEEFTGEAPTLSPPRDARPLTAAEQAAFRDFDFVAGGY
T1 sequence (Q63433 whole entry): as above
T2 sequence (Q63433 whole entry): as above
T3 sequence (Q63433 whole entry): as above
T4 sequence (P61586 whole entry): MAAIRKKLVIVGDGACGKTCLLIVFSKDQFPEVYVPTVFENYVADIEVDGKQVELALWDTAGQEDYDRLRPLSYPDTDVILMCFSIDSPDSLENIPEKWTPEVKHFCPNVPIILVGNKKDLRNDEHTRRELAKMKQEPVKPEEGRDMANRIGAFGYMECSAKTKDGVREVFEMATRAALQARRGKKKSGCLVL

Compound: O=[As]O [sodium arsenite]
effect on subcellular distribution of PKN [3]: translocation of PKN to the nucleus

Compound: EGAENLRRATTDLGRSLGPV [PKN (54-73) peptide]
inhibitory activity against PKN [4]: little or no inhibitory activity

Compound: MBP-PKN: N-terminal region of PKN (amino acid sequence 7-155 in SEQ ID NO: 1) expressed as MBP fusion protein
effect on GST-RhoGAP-stimulated GTPase activity of GST-RhoA [5]: inhibited

Compound: RERLRREIRKELKLK [PKN (39-53) peptide]
type of inhibition versus δPKC peptide substrate ([8]; 100 μM ATP): competitive-noncompetitive | type of inhibition with varying ATP concentration ([8]; data not shown): uncompetitive | IC50 [9]: ≥ 1000 µM

More lines, main results first:

stimulation of phosphorylation of G-actin by PKN [1]: up to 2 fold | stimulation of phosphorylation of caldesmon by PKN [1]: at least 6 fold | initial velocity of phosphorylation of each NF subunit by PKN, presence versus absence [2]: 5-10 times
Compound: CCCCC/C=C\C/C=C\C/C=C\C/C=C\CCCC(=O)O [arachidonic acid]

enzyme (kinase) activity of the mutant [6]: inactivated
Compound: PKN-PK^−: single point mutation of human PKN in the kinase domain (K644R), protein kinase-negative mutant
nuclear translocation of the mutant protein on heat shock ([7]; 42° C. or 44° C. for 90 min): does not translocate to the nucleus | effect of overexpression on translocation of endogenous PKN from cytoplasm to nucleus ([7]; heat shock): inhibits the translocation
